Data as given in patent publication US10828317B2, “Method of treating bacterial infections” (priority 2016, dated 2020).

Experiments:
S. marescens EN0454 = test: MIC; format: cell-based, Serratia marescens; settings: combination FdUrd+trimethoprim+uridine, Table 8
M. luteus EN0455 = test: MIC; format: cell-based, Micrococcus luteus; settings: combination FdUrd+trimethoprim+uridine, Table 8
P. mirabilis EN0457 = test: MIC; format: cell-based, Proteus mirabilis; settings: combination FdUrd+trimethoprim+uridine, Table 8
P. aeruginosa EN0459 = test: MIC; format: cell-based, Pseudomonas aeruginosa; settings: combination FdUrd+trimethoprim+uridine, Table 8
P. aeruginosa EN0460 = test: MIC; format: cell-based, Pseudomonas aeruginosa; settings: combination FdUrd+trimethoprim+uridine, Table 8
E. aerogenes EN0461 = test: MIC; format: cell-based, Enterobacter aerogenes; settings: combination FdUrd+trimethoprim+uridine, Table 8
K. pneumoniae EN0463 = test: MIC; format: cell-based, Klebsiella pneumoniae; settings: combination FdUrd+trimethoprim+uridine, Table 8
S. epidermidis EN0456 = test: MIC; format: cell-based, Staphylococcus epidermidis; settings: combination FdUrd+trimethoprim+uridine, Table 8
Citrobacter sp. EN0465 = test: MIC; format: cell-based; settings: combination FdUrd+trimethoprim+uridine, Table 8
[1] = tested on: A. pittii or A. nosocomialis EN0180; test: MIC; format: cell-based, Acinetobacter pittii or nosocomialis; settings: combination FdUrd+trimethoprim+uridine, Table 8
P. aeruginosa EN0422 = test: MIC; format: cell-based, Pseudomonas aeruginosa; settings: combination FdUrd+trimethoprim+uridine, Table 8
P. mirabilis ST19 EN0445 = test: MIC; format: cell-based, Proteus mirabilis; settings: combination FdUrd+trimethoprim+uridine, Table 8
E. coli EN001 = test: MIC, WT (EN001 = EN0001, ATCC 25922); format: cell-based, Escherichia coli; settings: combination FdUrd+trimethoprim+uridine, Table 19
E. coli EN002 = test: MIC, DtoIC; format: cell-based, Escherichia coli; settings: combination FdUrd+trimethoprim+uridine, Table 8
E. coli EN003 = test: microbe, parasite or virus in culture; format: cell-based, Escherichia coli; settings: combination FdUrd+trimethoprim+uridine, Table 8
P. aeruginosa EN004 = test: MIC, WT (EN004 = EN0004); format: cell-based, Pseudomonas aeruginosa; settings: combination FdUrd+trimethoprim+uridine
K. pneumoniae EN006 = test: MIC, WT (EN006 = EN0006, ATCC 13883); format: cell-based, Klebsiella pneumoniae; settings: combination FdUrd+trimethoprim+uridine
S. aureus EN008 = test: MIC, Gram-positive control; format: cell-based, Staphylococcus aureus; settings: combination FdUrd+trimethoprim+uridine, Table 8
E. coli EN012 = test: MIC, WT; format: cell-based, Escherichia coli; settings: combination FdUrd+trimethoprim+uridine, Table 8
P. aeruginosa EN014 = test: MIC, WT; format: cell-based, Pseudomonas aeruginosa; settings: combination FdUrd+trimethoprim+uridine, Table 8
A. baumannii EN016 = test: MIC, WT; format: cell-based, Acinetobacter baumannii; settings: combination FdUrd+trimethoprim+uridine, Table 8
E. coli EN0134 = test: MIC, AmpC (CMY-4); format: cell-based; settings: combination FdUrd+trimethoprim+uridine, Table 19
E. coli EN0136 = test: MIC, ESBL (CTX-M-2); format: cell-based; settings: combination FdUrd+trimethoprim+uridine, Table 19
E. coli EN0137 = test: MIC, ESBL (CTX-M-15); format: cell-based; settings: combination FdUrd+trimethoprim+uridine, Table 19
E. coli EN0235 = test: microbe, parasite or virus in culture; format: cell-based; settings: combination FdUrd+trimethoprim+uridine, Table 19
K. pneumoniae EN0140 = test: MIC, AmpC (DHA-1); format: cell-based; settings: combination FdUrd+trimethoprim+uridine, Table 19
K. pneumoniae EN0144 = test: MIC, MBL (VIM-1); format: cell-based; settings: combination FdUrd+trimethoprim+uridine, Table 19
K. pneumoniae EN0145 = test: MIC, KPC-2; format: cell-based; settings: combination FdUrd+trimethoprim+uridine, Table 19
K. pneumoniae EN0244 = test: MIC, colistinR; format: cell-based; settings: combination FdUrd+trimethoprim+uridine, Table 19
K. pneumoniae EN0245 = test: MIC, colistinR; format: cell-based; settings: combination FdUrd+trimethoprim+uridine, Table 19
K. pneumoniae EN0249 = test: MIC, colistinR; format: cell-based; settings: combination FdUrd+trimethoprim+uridine, Table 19
S. flexneri APV00907 = test: MIC and antibiogram; format: cell-based; settings: combination FdUrd+trimethoprim+uridine, Table 22A
Source text: Inhibition of Heliobacter is important in view of increasing resistance and its association to gastric cancer.

S. sonnei APV00908 = test: MIC and antibiogram; format: cell-based; settings: combination FdUrd+trimethoprim+uridine, Table 22A

O=c1[nH]c(=O)n([C@H]2C[C@H](O)[C@@H](CO)O2)cc1F [FdUrd, Fluorodeoxyuridine]
MIC (S. marescens EN0454): >4 µg/mL
MIC (M. luteus EN0455): 2 µg/mL
MIC (P. mirabilis EN0457): 1 µg/mL
MIC (P. aeruginosa EN0459): >4 µg/mL
MIC (P. aeruginosa EN0460): >4 µg/mL
MIC (E. aerogenes EN0461): 1 µg/mL
MIC (K. pneumoniae EN0463): 0.25 µg/mL
MIC (S. epidermidis EN0456): <0.008 µg/mL
MIC (Citrobacter sp. EN0465): >4 µg/mL
MIC [1]: 4 µg/mL
MIC (P. aeruginosa EN0422): >4 µg/mL
MIC (P. mirabilis ST19 EN0445): 0.5 µg/mL
MIC (E. coli EN001): 0.25 µg/mL
MIC (E. coli EN002): 0.032 µg/mL
MIC (E. coli EN003): 0.016 µg/mL
MIC (P. aeruginosa EN004; Table 8): >4 µg/mL
MIC (P. aeruginosa EN004; Table 19): >4 µg/mL
MIC (K. pneumoniae EN006; Table 8): 0.5 µg/mL
MIC (K. pneumoniae EN006; Table 19): 0.5 µg/mL
MIC (S. aureus EN008): <0.008 µg/mL
MIC (E. coli EN012): 0.032 µg/mL
MIC (P. aeruginosa EN014): >4 µg/mL
MIC (A. baumannii EN016): 4 µg/mL
MIC (E. coli EN0134): >4 µg/mL
MIC (E. coli EN0136): 1 µg/mL
MIC (E. coli EN0137): >4 µg/mL
MIC (E. coli EN0235): 0.06 µg/mL
MIC (K. pneumoniae EN0140): >4 µg/mL
MIC (K. pneumoniae EN0144): >4 µg/mL
MIC (K. pneumoniae EN0145): >4 µg/mL
MIC (K. pneumoniae EN0244): >4 µg/mL
MIC (K. pneumoniae EN0245): >4 µg/mL
MIC (K. pneumoniae EN0249): >4 µg/mL
MIC (S. flexneri APV00907): >4 µg/mL
MIC (S. sonnei APV00908): >4 µg/mL
